Experimental data published in patent US20090156621A1, “HCV INHIBITORS” (priority 2004, published 2009).
Counter-ions that a name gives are not always drawn.

System: HCV genotype 1b strain Con1 replicon (ET replicon line, Huh7 cells)
Experiment: HCV ET replicon luciferase assay
Type: cell-based
Details: Hepatitis C virus, Huh-7; ET replicon line (Huh7 cells, HCV genotype 1b Con1 replicon), luciferase read-out, 72 hours; compounds in free or salt form
Description: Compounds of the current invention are believed useful in the treatment and/or prophylaxis of conditions and diseases associated with HcV infection. Activity mediated through HCV was determined using an ET replicon line.
The Materials used include a Medium comprised of DMEM (1× liquid, high glucose); Invitrogen cat# 11965-092; 100×Penicillin/Streptomycin solution (10,000 Units/mL); Invitrogen cat# 15140-122; 100×Non-essential amino acid solution (10 mM); Invitrogen cat# 11140-050; Fetal bovine serum; JRH Biosciences cat# 12107-500M; Geneticin (50 mg/mL); Invitrogen cat# 10131-035
The Luciferase assay reagents include Steady-Glo Luciferase assay system, cat# E2550 (Promega)
The ET replicon line (see Lohmann et al. (1999), Replication of subgenomic hepatitis C virus RNAs in a hepatoma cell line. Science 285:110-113; Krieger et al. (2001), Enhancement of hepatitis C virus RNA replication by cell culture-adaptive mutations. J. Virol. 75: 4614-4624; and Vrolijk et al. (2003), A replicon-based bioassay for the measurement of interferons in patients with chronic hepatitis C. J. Virol. Meth. 110: 201-209, each herein incorporated by reference with regard to the ET replicon line), includes Huh7 cells stably transfected with HCV genotype 1b strain Con1 replicon. This replicon expresses the firefly luciferase, has the coding region for ubiquitin inserted upstream of the neomycin gene, and carries three cell culture-adaptive mutations that enhance RNA replication cooperatively (E1202G, T1280I, and S2197P). The ET cell line was obtained under license from: ReBLikon GmbH, Nach dem alten Schloss 22, 55239 Gau-Odernheim, Germany.
Cells are maintained at 37° C., 5% CO2, in DMEM with 10% FCS, 1× penicillin/streptomycin, 1× non-essential amino acids, 0.5 mg/mL Geneticin. For passage, cells are washed once with PBS, and incubated at 37° C. with sufficient trypsin (0.05%)/versene to cover the monolayer. Once detached from the flask, cells are mixed with several mLs of DMEM+10% FBS to inactivate the trypsin, then diluted appropriately (usually 1 in 5 or 1 in 10) with sufficient medium to pass to a new flask. For a T225 flask, 40-50 mLs total volume of cells+medium is typically used. To prevent the density dependent drop in replicon RNA, the ET cell line is maintained at sub-confluent (60-80%) levels.
Compounds are diluted in DMSO across the first 10 wells of a Costar V-bottom 96-well plate using a Biomek 2000 Workstation (Beckman-Coulter), with 0.5 log10 dilution intervals. DMSO only is added to the last two columns of the plate. The top concentration of drug in this master plate is typically 2.5 mM. A 1/5 dilution of the compounds is made by adding DMEM+10% FBS with a multichannel pipettor, giving a top concentration of 500 μM. 5 μL of diluted compounds is transferred into black Costar flat bottom 96-well daughter plates using a RapidPlate workstation (Zymark).
Cells are grown to approximately 80% confluency and trypsinised as described above. Cells are counted in a Levy Hemocytometer and diluted to 20,000 cells/ml in DMEM containing 10% FBS, 1× penicillin/streptomycin, 1×NEAAs. (Note: Geneticin is omitted for the assay).
245 μL cell suspension is added to the first 11 columns of the daughter plates prepared as above using a Multidrop dispenser (Titertek). Thus, 5,000 cells are added per well, and the final top concentration of each compound is 10 μM. The twelfth column of each plate is used to generate background readings for the assay. […]

| Structure (SMILES) | IC50 [nM] |
| --- | --- |
| Brc1ccc2[nH]c3c(c2c1)CCCC3Nc1ccccc1 (centres unmarked) [Example 13, 6-Bromo-N-Phenyl-2,3,4,9-tetrahydro-1H-carbazol-1-amine] | 10 |
| Clc1ccc2[nH]c3c(c2c1)CCCC3Nc1ccccc1 (centres unmarked) [Example 14, 6-Chloro-N-phenyl-2,3,4,9-tetrahydro-1H-carbazol-1-amine] | 5 |
| Clc1ccc2[nH]c3c(c2c1)CCCC3Nc1ncccn1 (centres unmarked) [Example 23, 6-Chloro-N-pyrimidin-2-yl-2,3,4,9-tetrahydro-1H-carbazol-1-amine] | 52 |
| Brc1ccc2[nH]c3c(c2c1)CCCC3Nc1ccccn1 (centres unmarked) [Example 27, 6-Bromo-N-pyridin-2-yl-2,3,4,9-tetrahydro-1H-carbazol-1-amine Hydrochloride] | 8 |
| Brc1ccc2[nH]c3c(c2c1)CCCCC3Nc1ncccn1 (centres unmarked) [Example 38, 2-Bromo-N-pyrimidin-2-yl-5,6,7,8,9,10-hexahydrocyclohepta[b]indol-6-amine] | 39 |
